One data set has as its system Bacillus subtilis. Put plainly: Antibacterial activity against Bacillus subtilis ATCC […] assessed as growth inhibition at 10 ug/ml by disc diffusion method. It is filed as functional. The conditions noted are these: read-out: IZ.
In data set [1] the test system is Rattus norvegicus. Kind of data set: Antidepressant activity in Albino rat assessed as reduction in immobility duration at 20 mg/kg, ip measured during 5 mins by forced swim test relative to control. It is filed as functional. Set-up: scale not given: the % may be the effect or the level left. Particulars: route intraperitoneal.
Data set [2] has as its system Rattus norvegicus. Put plainly: Neurotoxicity in rat assessed as minimal motor impairment by measuring coordination time at 100 mg/kg, ip 30 mins prior to testing by rotarod method. It is filed as toxicity, organism-based. The arrangement: dose 100 mg/kg, route intraperitoneal. Particulars: in vivo, 0.5 h.
In the next data set the test system is Pseudomonas aeruginosa. Kind of data set: Antibacterial activity against Pseudomonas aeruginosa ATCC 9027 assessed as growth inhibition at 10 ug/ml by disc diffusion method. Type of data set: functional. The conditions noted are these: read-out: IZ.
Another data set concerns Escherichia coli. Kind of data set: Antibacterial activity against Escherichia coli ATCC 35218 assessed as growth inhibition at 10 ug/ml by disc diffusion method. It is filed as functional. Particulars: read-out: IZ. In general terms: In agar diffusion tests the substance spreads into inoculated agar from a disc or well.
The next data set relates to Staphylococcus aureus. Kind of data set: Antibacterial activity against Staphylococcus aureus ATCC 6538 assessed as growth inhibition at 10 ug/ml by disc diffusion method. Type of data set: functional. Particulars: read-out: IZ.

Consider `O=C1CC(c2cccc([N+](=O)[O-])c2)N(Cc2ccccc2)C2CCCCC2N1` (configuration not stated), for which the zone of inhibition at 10 µg/mL with Bacillus subtilis worked out at 3 mm; with Pseudomonas aeruginosa, 7 mm; in the data set with Escherichia coli, 4 mm; in the data set on Staphylococcus aureus, 10 mm. Also, the Activity with Rattus norvegicus [1] is recorded as 85.82%. For the same compound, the Time with Rattus norvegicus [2] was found to be 92.34 s.

As to `O=C1CC(c2ccc(Br)cc2)N(Cc2ccccc2)C2CCCCC2N1` (configuration not stated), the zone of inhibition at 10 µg/mL was found to be 5 mm in the data set on Bacillus subtilis, 8 mm in the data set on Pseudomonas aeruginosa, 5 mm with Escherichia coli and 10 mm in the data set with Staphylococcus aureus. Further, the Activity with Rattus norvegicus [1] was 85.82%. In addition, the Time with Rattus norvegicus [2] is given as 93.67 s.

For `O=C1CC(c2cc3ccccc3nc2Cl)N(Cc2ccccc2)C2CCCCC2N1` (configuration not stated), the zone of inhibition at 10 µg/mL was found to be 6 mm in the data set on Bacillus subtilis, 6 mm in the data set on Pseudomonas aeruginosa, 6 mm in the data set on Escherichia coli and 13 mm in the data set with Staphylococcus aureus. Also, the Activity in the data set on Rattus norvegicus [1] came out at 85.27%. Also, in the data set on Rattus norvegicus [2], the Time is reported as 98.33 s.

On to `COc1ccc(C2CC(=O)NC3CCCCC3N2Cc2ccccc2)cc1` (configuration not stated), for which the zone of inhibition at 10 µg/mL is 3 mm in the data set with Bacillus subtilis, 7 mm in the data set with Pseudomonas aeruginosa, 5 mm in the data set on Escherichia coli and 12 mm with Staphylococcus aureus. Besides, the Activity in the data set with Rattus norvegicus [1] came out at 86.4%. In the data set with Rattus norvegicus [2], the Time was determined as 97.83 s.

Consider `O=C1CC(c2coc3ccccc3c2=O)N(Cc2ccccc2)C2CCCCC2N1` (configuration not stated), for which the zone of inhibition at 10 µg/mL in the data set on Bacillus subtilis was 4 mm; in the data set with Pseudomonas aeruginosa, 5 mm; with Escherichia coli, 5 mm; in the data set with Staphylococcus aureus, 8 mm. The Activity with Rattus norvegicus [1] is 83.56%. In the data set with Rattus norvegicus [2], the Time was determined as 97.17 s.

With `O=C(O)c1cn(C2CC2)c2cc(N3CCNCC3)c(F)cc2c1=O` [CIPROFLOXACIN], the zone of inhibition at 10 µg/mL amounted to 9 mm in the data set on Bacillus subtilis, 12 mm in the data set with Pseudomonas aeruginosa, 9 mm in the data set on Escherichia coli and 18 mm in the data set with Staphylococcus aureus.

For `O=C1CC(c2ccc([N+](=O)[O-])cc2)N(Cc2ccccc2)C2CCCCC2N1` (configuration not stated), the zone of inhibition at 10 µg/mL in the data set with Bacillus subtilis was found to be 6 mm; in the data set on Pseudomonas aeruginosa, 9 mm; in the data set with Escherichia coli it was 4 mm; with Staphylococcus aureus, 15 mm. Also, the Activity in the data set on Rattus norvegicus [1] is 89.44%. For the same compound, the Time with Rattus norvegicus [2] is on record as 93.5 s.

With `COc1ccc(C2CC(=O)NC3CCCCC3N2Cc2ccccc2)cc1OC` (configuration not stated), the zone of inhibition at 10 µg/mL came out at 7 mm in the data set with Bacillus subtilis, 5 mm with Pseudomonas aeruginosa, 8 mm with Escherichia coli and 7 mm in the data set on Staphylococcus aureus. For the same compound, in the data set with Rattus norvegicus [1], the Activity worked out at 89.03%. For the same compound, in the data set with Rattus norvegicus [2], the Time was determined as 96.5 s.

Take `O=C1CC(c2ccccc2)N(Cc2ccccc2)C2CCCCC2N1` (configuration not stated): the zone of inhibition at 10 µg/mL in the data set on Bacillus subtilis was 6 mm; in the data set with Pseudomonas aeruginosa it was 6 mm; in the data set on Escherichia coli it was 5 mm; with Staphylococcus aureus, 9 mm. Further, the Activity in the data set with Rattus norvegicus [1] was 81.56%. In the data set with Rattus norvegicus [2], the Time turned out to be 100.33 s.

As for `CN(C)CCCN1c2ccccc2CCc2ccc(Cl)cc21` [CLOMIPRAMINE], in the data set on Rattus norvegicus [1], the Activity is 92.21%. The Time in the data set on Rattus norvegicus [2] stood at 110.83 s.

For `O=C1CC(c2ccccc2Cl)N(Cc2ccccc2)C2CCCCC2N1` (configuration not stated), the zone of inhibition at 10 µg/mL with Bacillus subtilis worked out at 4 mm; with Pseudomonas aeruginosa, 9 mm; in the data set on Escherichia coli it was 4 mm; in the data set with Staphylococcus aureus, 8 mm. Also, in the data set on Rattus norvegicus [1], the Activity amounted to 78.23%. In the data set on Rattus norvegicus [2], the Time was determined as 95.17 s.

Turning to `O=C1CC(c2ccc(Cl)cc2)N(Cc2ccccc2)C2CCCCC2N1` (configuration not stated), the zone of inhibition at 10 µg/mL in the data set on Bacillus subtilis was 3 mm; in the data set on Pseudomonas aeruginosa, 4 mm; in the data set with Escherichia coli, 3 mm; in the data set with Staphylococcus aureus, 10 mm. Moreover, the Activity in the data set on Rattus norvegicus [1] turned out to be 88.03%. Besides, the Time in the data set on Rattus norvegicus [2] was 90.83 s.

As to `O=C1CC(c2ccccc2Br)N(Cc2ccccc2)C2CCCCC2N1` (configuration not stated), the zone of inhibition at 10 µg/mL was found to be 6 mm with Bacillus subtilis, 5 mm in the data set with Pseudomonas aeruginosa, 6 mm in the data set on Escherichia coli and 15 mm in the data set on Staphylococcus aureus. Moreover, the Activity in the data set on Rattus norvegicus [1] is 71.1%. In addition, the Time with Rattus norvegicus [2] came out at 91.33 s.

For the origin of these results see ChEMBL document CHEMBL2429815, “Synthesis of 5-benzyl-4-aryl-octahydro-1H-benzo[b][1,5]diazepin-2-ones as potent antidepressant and antimicrobial agents” (Med Chem Res, 2013).
